The term melting point denotes the temperature, or range, at which the solid turns liquid.

For 11 compounds, pest or weed control and melting point results are on record in patent publication US10034477B2, “Pyrido-1,3-oxazine-2,4-dione compounds with fungicidal activity” (Dow AgroSciences LLC, priority 2016, dated 2018).

Each structure is given as a SMILES string. Read-outs that look alike come from different tables or passages of the source.

Data set [1] concerns Zymoseptoria tritici. Briefly: Fungicidal activity: leaf blotch of wheat (SEPTTR), disease control on wheat seedlings. The format is in vivo. As to conditions: LV activity at 121.5 g/H, wheat (variety Yuma). As to the method: (§1) Technical grades of materials were dissolved in acetone, which were then mixed with nine volumes of water (H2O) containing 110 ppm Triton X-100. The fungicide solutions were applied onto wheat seedlings using an automated booth sprayer to run-off. All sprayed plants were allowed to air dry prior to further handling. All fungicides were evaluated using the aforementioned method for their activity vs. all target diseases, unless stated otherwise. Wheat leaf blotch and brown rust activity were also evaluated using track spray applications, in which case the fungicides were formulated as EC formulations, containing 0.1% Trycol 5941 in the spray solutions. Wheat plants (variety Yuma) were grown from seed in a greenhouse in 50% mineral soil/50% soil-less Metro mix until the first leaf was fully emerged, with 7-10 seedlings per pot. These plants were inoculated with an aqueous spore suspension of Zymoseptoria tritici either prior to or after fungicide treatments. After inoculation the plants were kept in 100% relative humidity (one day in a dark dew chamber followed by two to three days in a lighted dew chamber at 20° C.) to permit spores to germinate and infect the leaf. The plants were then transferred to a greenhouse set at 20° C. for disease to develop. When disease symptoms were fully expressed on the 1st leaves of untreated plants, infection levels were assessed on a scale of 0 to 100 percent disease severity. Percent disease control was calculated using the ratio of disease severity on treated plants relative to untreated plants.

Data set [2] relates to Puccinia triticina. As to the kind of experiment: Fungicidal activity: wheat brown rust (PUCCRT), disease control on wheat seedlings. The data set is classed as in vivo. The note with it: LV activity at 121.5 g/H, wheat (variety Yuma). As to the method: as §1, with “plants. Wheat plants (variety Yuma) were grown from seed in a greenhouse in 50% mineral soil/50% soil-less Metro mix until the first leaf was fully emerged, with 7-10 seedlings per pot. These plants were inoculated with an aqueous spore suspension of Puccinia triticina either prior to or after fungicide treatments. After inoculation the plants were kept in a dark dew room at 22° C. with 100% relative humidity overnight to permit spores to germinate and infect the leaf. The plants were then transferred to a greenhouse set at 24° C. for disease to develop. Fungicide formulation, application and disease assessment followed the procedures as described in the Example A. Results of the evaluations are shown below in Table 4.” for “plants.”

In data set [3] the test system is Phakopsora pachyrhizi. As to the kind of experiment: Fungicidal activity: Asian soybean rust (PHAKPA), disease control on soybean seedlings. The data set is classed as in vivo. As to conditions: soybean (variety Williams 82). The protocol:
Technical grades of materials were dissolved in acetone, which were then mixed with nine volumes of H2O containing 0.011% Tween 20. The fungicide solutions were applied onto soybean seedlings using an automated booth sprayer to run-off. All sprayed plants were allowed to air dry prior to further handling. Soybean plants (variety Williams 82) were grown in soil-less Metro mix, with one plant per pot. Two week old seedlings were used for testing. Plants were inoculated either 3 days prior to or 1 day after fungicide treatments. Plants were incubated for 24 h in a dark dew room at 22° C. and 100% relative humidity then transferred to a growth room at 23° C. for disease to develop. Disease severity was assessed on the sprayed leaves.

[4] abbreviates: 24 h, 1 Day Protectant, read-out: SEPTTR 1DP disease control rating.
The mark [5] stands for this setting: 72 h, 3 Day Curative, read-out: SEPTTR 3DC disease control rating.
The mark [6] stands for this setting: 24 h, 1 Day Protectant, read-out: PUCCRT 1DP disease control rating.
[7] abbreviates: 72 h, 3 Day Curative, read-out: PUCCRT 3DC disease control rating.
The mark [8] stands for this setting: 24 h, 1 Day Protectant, read-out: PHAKPA 1DP disease control rating.
The mark [9] stands for this setting: 72 h, 3 Day Curative, read-out: PHAKPA 3DC disease control rating.

For the compound `COc1ccc(C(c2ccc(OC)cc2)[C@H](C)OC(=O)[C@H](C)n2c(=O)oc3c(OC)ccnc3c2=O)cc1` [Compound 18], the pest or weed control at 121.5 g/ha in data set [1] (setting [4]) was over 80%; in data set [1] (setting [5]), over 80%; in data set [2] (setting [6]), over 80%; in data set [2] (setting [7]) it was at most 80%. The pest or weed control at 25 ppm in data set [3] (setting [8]) and in data set [3] (setting [9]) was at most 80% in each case.
As to `COc1ccnc2c(=O)n([C@@H](C)C(=O)O[C@@H](C)[C@@H](c3ccccc3)c3ccc(C(F)(F)F)cc3)c(=O)oc12` [Compound 28], the pest or weed control at 121.5 g/ha in data set [1] (setting [4]) is over 80%; in data set [1] (setting [5]) it was over 80%; in data set [2] (setting [6]), at most 80%; in data set [2] (setting [7]), at most 80%. Besides, the pest or weed control at 25 ppm in data set [3] (setting [9]) was at most 80%.
Regarding `COc1ccnc2c(=O)n([C@@H](C)C(=O)O[C@@H](C)[C@H](Oc3cccc(F)c3)C(C)C)c(=O)oc12` [Compound 24], the pest or weed control at 121.5 g/ha was at most 80% in data set [1] (setting [4]), over 80% in data set [1] (setting [5]), over 80% in data set [2] (setting [6]) and over 80% in data set [2] (setting [7]). Besides, the pest or weed control at 25 ppm in data set [3] (setting [8]) was over 80%; in data set [3] (setting [9]), at most 80%.
On to `COc1ccnc2c(=O)n([C@@H](C)C(=O)O[C@@H](C)[C@@H](c3ccc(F)cc3)c3ccc(F)cc3C)c(=O)oc12` [Compound 19], for which the pest or weed control at 121.5 g/ha in data set [1] (setting [4]) is over 80%; in data set [1] (setting [5]), over 80%; in data set [2] (setting [6]) it was over 80%; in data set [2] (setting [7]) it was at most 80%. Further, the pest or weed control at 25 ppm in data set [3] (setting [8]) was over 80%; in data set [3] (setting [9]), at most 80%.
On to `COc1ccnc2c(=O)n([C@@H](C)C(=O)O[C@H](C(C)C)[C@H](C)Oc3ccc(C)cc3)c(=O)oc12` [Compound 30], for which the pest or weed control at 121.5 g/ha in data set [1] (setting [4]) was at most 80%; in data set [1] (setting [5]), at most 80%; in data set [2] (setting [6]), over 80%; in data set [2] (setting [7]) it was at most 80%. In addition, the pest or weed control at 25 ppm in data set [3] (setting [8]) is at most 80%.
Consider `COc1ccnc2c(=O)n([C@@H](C)C(=O)O[C@@H](C)[C@H](Oc3ccccc3Cl)c3ccccc3)c(=O)oc12` [Compound 21], for which the pest or weed control at 121.5 g/ha was over 80% in data set [1] (setting [4]), at most 80% in data set [1] (setting [5]) and over 80% in data set [2] (setting [6]). The pest or weed control at 25 ppm in data set [3] (setting [9]) was at most 80%.
Take `COc1ccnc2c(=O)n([C@@H](C)C(=O)O[C@@H](C)[C@@H](c3ccccc3)c3ccc(F)c(C)c3)c(=O)oc12` [Compound 22]: the pest or weed control at 121.5 g/ha in data set [1] (setting [4]) was over 80%; in data set [1] (setting [5]), over 80%; in data set [2] (setting [6]), over 80%; in data set [2] (setting [7]), at most 80%. The pest or weed control at 25 ppm in data set [3] (setting [8]) and in data set [3] (setting [9]) was at most 80% in each case.
For the compound `COc1ccnc2c(=O)n([C@@H](C)C(=O)O[C@@H](C)C(c3ccc(Cl)cc3)c3ccc(Cl)cc3)c(=O)oc12` [Compound 27], the figures for the pest or weed control at 121.5 g/ha in data set [1] (setting [4]), in data set [1] (setting [5]) and in data set [2] (setting [6]) were over 80%, over 80% and at most 80%, respectively. The pest or weed control at 25 ppm in data set [3] (setting [8]) and in data set [3] (setting [9]) was at most 80% throughout.
`CCC[C@@H](Oc1ccc(C)cc1)[C@H](C)OC(=O)[C@H](C)n1c(=O)oc2c(OC)ccnc2c1=O` [Compound 31]: the pest or weed control at 121.5 g/ha in data set [1] (setting [5]) is at most 80%; in data set [2] (setting [6]), over 80%; in data set [2] (setting [7]), at most 80%. In addition, the pest or weed control at 25 ppm in data set [3] (setting [8]) and in data set [3] (setting [9]) was at most 80% in each case.
As to `COc1ccnc2c(=O)n([C@@H](C)C(=O)O[C@@H](C)C(c3ccc(F)cc3)c3ccc(F)cc3)c(=O)oc12` [Compound 1], the melting point is 68 to 84 °C. For the same compound, the pest or weed control at 121.5 g/ha in data set [1] (setting [4]) was over 80%. In addition, the pest or weed control at 121.5 g/ha in data set [1] (setting [5]) is over 80%. In addition, in data set [2] (setting [6]), the pest or weed control at 121.5 g/ha was over 80%. In addition, in data set [2] (setting [7]), the pest or weed control at 121.5 g/ha is at most 80%. Also, the pest or weed control at 25 ppm in data set [3] (setting [8]) is at most 80%.
On to `COc1ccnc2c(=O)n([C@@H](C)C(=O)O[C@@H](C)C(c3ccc(C)cc3)c3ccc(C)cc3)c(=O)oc12` [Compound 32, (S)-1,1-di-p-tolylpropan-2-yl-(S)-2-(8-methoxy-2,4-dioxo-2H-pyrido[2,3-e][1,3]oxazin-3(4H)-yl)propanoate], for which the pest or weed control at 121.5 g/ha in data set [1] (setting [4]) is over 80%; in data set [1] (setting [5]), over 80%; in data set [2] (setting [6]), over 80%; in data set [2] (setting [7]) it was at most 80%. Further, the pest or weed control at 25 ppm in data set [3] (setting [8]) and in data set [3] (setting [9]) was at most 80% each time.
